Results published in US9084770B2, “Modulation of insulin like growth factor I receptor expression in cancer” (Antisense Therapeutics, Ltd., priority 2008, dated 2015).

System: human IGF-IR mRNA
Experiment: Antisense inhibition of human IGF-IR mRNA levels by quantitative RT-PCR (Table 1)
Assay type: cell-based
Design: %INHIB (human IGF-IR mRNA levels): concentration or dose not given beside the values
Conditions: for %INHIB (human IGF-IR mRNA levels): quantitative RT-PCR, averages from 3 experiments; for inhibition of IGF-IR expression (lead compounds): as shown in Table 1
Source text: Treatment of A549 cell cultures with oligonucleotides targeting IGF-IR is as described in WO 2004/072284.
Quantitation of IGF-IR mRNA levels was accomplished by RT-PCR using the ABI PRISM (trademark) 7600, 7700, or 7900 Sequence Detection System (PE-Applied Biosystems, Foster City, Calif.) according to manufacturer's instructions. This is a closed-tube, non-gel-based, fluorescence detection system which allows high-throughput quantitation of PCR products in real-time. As opposed to standard PCR in which amplification products are quantitated after the PCR is completed, products in real-time quantitative PCR are quantitated as they accumulate. This is accomplished by including in the PCR reaction an oligonucleotide probe that anneals specifically between the forward and reverse PCR primers, and contains two fluorescent dyes. A reporter dye (e.g., FAM or JOE, obtained from either PE-Applied Biosystems, Foster City, Calif., Operon Technologies Inc., Alameda, Calif. or Integrated DNA Technologies Inc., Coralville, Iowa) is attached to the 5′-end of the probe and a quencher dye (e.g., TAMRA, obtained from either PE-Applied Biosystems, Foster City, Calif., Operon Technologies Inc., Alameda, Calif. or Integrated DNA Technologies Inc., Coralville, Iowa) is attached to the 3′-end of the probe. When the probe and dyes are intact, reporter dye emission is quenched by the proximity of the 3′ quencher dye. During amplification, annealing of the probe to the target sequence creates a substrate that can be cleaved by the 5′-exonuclease activity of Taq polymerase. […] With each cycle, additional reporter dye molecules are cleaved from their respective probes, and the fluorescence intensity is monitored at regular intervals by laser optics built into the ABI PRISM (trademark) Sequence Detection System. In each assay, a series of parallel reactions containing serial dilutions of mRNA from untreated control samples generates a standard curve that is used to quantitate the percent inhibition after antisense oligonucleotide treatment of test samples.
PCR reagents were obtained from Invitrogen Corporation, (Carlsbad, Calif.). RT-PCR reactions were carried out by adding 20 μL PCR cocktail (2.5×PCR buffer minus MgCl2, 6.6 mM MgCl2, 375 μM each of dATP, dCTP, […] and dGTP, 375 nM each of forward primer and reverse primer, 125 nM of probe, 4 Units RNAse inhibitor, 1.25 Units PLATINUM (registered trademark) Taq, 5 Units MuLV reverse transcriptase, and 2.5×ROX dye) to 96-well plates containing 30 μL total RNA solution (20-200 ng). The RT reaction was carried out by incubation for 30 minutes at 48° C. Following a 10 minute incubation at 95° C. to activate the PLATINUM (trademark) Taq, 40 cycles of a two-step PCR protocol were carried out: 95° C. for 15 seconds (denaturation) followed by 60° C. for 1.5 minutes (annealing/extension).
Gene target quantities obtained by RT-PCR are normalized using either the expression level of GAPDH, a gene whose expression is constant, or by quantifying total RNA using RiboGreen (trademark) (Molecular Probes, Inc. Eugene, Oreg.). GAPDH expression is quantified by RT-PCR, by being run simultaneously with the target, multiplexing, or separately. Total RNA is quantified using RiboGreen (trademark) RNA quantification reagent (Molecular Probes, Inc. Eugene, Oreg.). Methods of RNA quantification by RiboGreen (trademark) are taught in Jones et al., 1998.
Probes and primers to human IGF-IR were designed to hybridize to the IGF-IR nucleotide sequence, using published sequence information (GenBank accession number NM000875 (SEQ ID NO:76) or M69229 (SEQ ID NO:77) which is the 5′ untranslated of the IGF-IR gene sequence (see FIG. 6).
In accordance with the present invention, a series of antisense compounds were designed to target different regions of the human IGF-IR mRNA or the 5′ untranslated region, using published sequences set forth in NM000875 (SEQ ID NO:77) and M69229 (SEQ ID NO:76). […]

Substance | %INHIB (human IGF-IR mRNA levels) [%] | inhibition of IGF-IR expression (lead compounds)
323730 (antisense CCACCATGTTCCAGCTGTTG; listed as DNA, chemistry not fully specified) [compound 323730] | 78 | 
323736 (antisense AGGAAATTCTCAAAGACTTT; listed as DNA, chemistry not fully specified) [compound 323736] | 43 | 
323737 (antisense CTGCTTCGGCTGGACATGGT; listed as DNA, chemistry not fully specified) [compound 323737] | 84 | demonstrated inhibition
175323 (antisense AATGAATGAGCGGCTCCCCC; listed as DNA, chemistry not fully specified) [compound 175323] | 82 | demonstrated inhibition
175302 (antisense CCTCCATTTTCAAACCCGGA; listed as DNA, chemistry not fully specified) [compound 175302] | 93 | demonstrated inhibition
175301 (antisense AGCCCAAATCTGCCTAGGCG; listed as DNA, chemistry not fully specified) [compound 175301] | 77 | 
323716 (antisense CACAGGTCCCCACATTCCTT; listed as DNA, chemistry not fully specified) [compound 323716] | 42 | 
175324 (antisense TGAAGGTCACAGCCGAGGCG; listed as DNA, chemistry not fully specified) [compound 175324] | 57 | 
323754 (antisense CATAGAAGAACACAGGATCT; listed as DNA, chemistry not fully specified) [compound 323754] | 33 | 
175327 (antisense ACAAGTCTCAAACTCAGTCT; listed as DNA, chemistry not fully specified) [compound 175327] | 61 | 
323719 (antisense TGTTGATGGTGGTCTTCTCA; listed as DNA, chemistry not fully specified) [compound 323719] | 66 | 
323738 (antisense TGTTCCTGCTTCGGCTGGAC; listed as DNA, chemistry not fully specified) [compound 323738] | 76 | 
323700 (antisense CCCTCGATCACCGTGCAGTT; listed as DNA, chemistry not fully specified) [compound 323700] | 56 | 
323734 (antisense TTGGTGCGAATGTACAAGAT; listed as DNA, chemistry not fully specified) [compound 323734] | 61 | 
323752 (antisense TCCTGTCTGGACACACATTC; listed as DNA, chemistry not fully specified) [compound 323752] | 66 | 
323696 (antisense CCAGACTTCATTCCTTTTAT; listed as DNA, chemistry not fully specified) [compound 323696] | 44 | 
175317 (antisense CGAAGGAAACAATACTCCGA; listed as DNA, chemistry not fully specified) [compound 175317] | 84 | demonstrated inhibition

Substance | %INHIB (human IGF-IR mRNA levels) [%] | inhibition of IGF-IR expression (lead compounds)
175299 (antisense AATCTGCCTAGGCGAGGAAA; listed as DNA, chemistry not fully specified) [compound 175299] | 78 | 
175318 (antisense GAAACGCGGAGTCAAAATGA; listed as DNA, chemistry not fully specified) [compound 175318] | 68 | 
323746 (antisense TTCTCAGCCTCGTGGTTGCA; listed as DNA, chemistry not fully specified) [compound 323746] | 62 | 
323706 (antisense TGGTCATCTCGAAGATGACC; listed as DNA, chemistry not fully specified) [compound 323706] | 5 | 
175316 (antisense GCTCGCTGAAGGTCACAGCC; listed as DNA, chemistry not fully specified) [compound 175316] | 82 | demonstrated inhibition
323710 (antisense AAGCCCAATATCCTTGAGAT; listed as DNA, chemistry not fully specified) [compound 323710] | 43 | 
323703 (antisense GTCCTCGGCCTTGGAGATGA; listed as DNA, chemistry not fully specified) [compound 323703] | 71 | 
175293 (antisense GTTAATGCTGGTAAACAAGA; listed as DNA, chemistry not fully specified) [compound 175293] | 40 | 
175321 (antisense TCGGCCTCCATTTTCAAACC; listed as DNA, chemistry not fully specified) [compound 175321] | 78 | 
323769 (antisense CATCACTGACCTCTTTCTAT; listed as DNA, chemistry not fully specified) [compound 323769] | 0 | 
323720 (antisense CTCATTGTTGATGGTGGTCT; listed as DNA, chemistry not fully specified) [compound 323720] | 81 | 
323732 (antisense GTGAGGGTCACAGCCTTGAC; listed as DNA, chemistry not fully specified) [compound 323732] | 59 | 
323715 (antisense CCACAATGTAGTTATTGGAC; listed as DNA, chemistry not fully specified) [compound 323715] | 65 | 
323721 (antisense GTTGTACTCATTGTTGATGG; listed as DNA, chemistry not fully specified) [compound 323721] | 73 | 
323722 (antisense CGGTAGTTGTACTCATTGTT; listed as DNA, chemistry not fully specified) [compound 323722] | 71 | 
323713 (antisense GTTATTGGACACCGCATCCA; listed as DNA, chemistry not fully specified) [compound 323713] | 31 | 
175319 (antisense GAAACAATACTCCGAAGGGC; listed as DNA, chemistry not fully specified) [compound 175319] | 63 | 
